Calls of active or inactive are those of the source. Rule as the data show it, for most assays here: actives have a measured Kd and inactives only a lower limit.
How the values were obtained:
[1] = molecular target: Calcium/calmodulin-dependent protein kinase kinase 2 (Homo sapiens, UniProt Q96RR4)
[2] = molecular target: Cyclin-dependent kinase 1 (Homo sapiens, UniProt P06493)
[3] = molecular target: Casein kinase I isoform epsilon (Homo sapiens, UniProt P49674)
[4] = molecular target: Eukaryotic translation initiation factor 2-alpha kinase 1 (Homo sapiens, UniProt Q9BQI3)
[5] = molecular target: Glycogen synthase kinase-3 beta (Homo sapiens, UniProt P49841)
Sequence of Glycogen synthase kinase-3 beta (P49841 whole entry): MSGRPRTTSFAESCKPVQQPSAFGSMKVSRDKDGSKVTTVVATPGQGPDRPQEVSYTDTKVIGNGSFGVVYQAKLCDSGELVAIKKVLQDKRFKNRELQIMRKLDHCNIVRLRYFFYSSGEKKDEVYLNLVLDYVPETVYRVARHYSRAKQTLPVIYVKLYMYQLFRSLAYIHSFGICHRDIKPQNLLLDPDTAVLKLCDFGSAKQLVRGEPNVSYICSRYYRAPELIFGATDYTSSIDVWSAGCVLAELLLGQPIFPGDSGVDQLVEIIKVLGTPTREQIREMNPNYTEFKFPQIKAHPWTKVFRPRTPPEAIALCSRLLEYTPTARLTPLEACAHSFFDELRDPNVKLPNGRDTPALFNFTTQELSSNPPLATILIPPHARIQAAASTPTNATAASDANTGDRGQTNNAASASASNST

Heme oxygenase 2 = molecular target: T1, Heme oxygenase 2 (Homo sapiens, UniProt P30519)
T1 sequence (P30519 whole entry): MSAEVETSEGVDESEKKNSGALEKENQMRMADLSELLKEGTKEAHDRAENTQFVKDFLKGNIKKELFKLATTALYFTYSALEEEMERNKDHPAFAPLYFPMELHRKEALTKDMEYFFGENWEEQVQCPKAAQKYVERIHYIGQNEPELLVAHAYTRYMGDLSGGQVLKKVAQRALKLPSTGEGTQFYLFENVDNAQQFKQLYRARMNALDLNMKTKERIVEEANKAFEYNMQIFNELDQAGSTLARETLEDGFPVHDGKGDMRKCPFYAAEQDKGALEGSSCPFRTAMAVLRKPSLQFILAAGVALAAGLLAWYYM

[6] = molecular target: T2, Dual specificity mitogen-activated protein kinase kinase 3 (Homo sapiens, UniProt P46734)
T2 sequence (P46734 whole entry): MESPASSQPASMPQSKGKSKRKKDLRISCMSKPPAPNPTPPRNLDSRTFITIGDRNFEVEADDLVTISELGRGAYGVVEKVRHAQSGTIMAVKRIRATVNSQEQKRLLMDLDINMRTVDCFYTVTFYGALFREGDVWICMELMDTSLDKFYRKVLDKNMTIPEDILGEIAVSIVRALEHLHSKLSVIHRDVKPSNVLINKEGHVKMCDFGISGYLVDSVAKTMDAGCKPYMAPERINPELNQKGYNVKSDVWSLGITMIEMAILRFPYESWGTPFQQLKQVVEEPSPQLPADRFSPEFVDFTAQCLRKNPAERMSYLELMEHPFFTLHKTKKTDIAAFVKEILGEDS

[7] = molecular target: T3, MAP kinase-activated protein kinase 5 (Homo sapiens, UniProt Q8IW41)
T3 sequence (Q8IW41 whole entry): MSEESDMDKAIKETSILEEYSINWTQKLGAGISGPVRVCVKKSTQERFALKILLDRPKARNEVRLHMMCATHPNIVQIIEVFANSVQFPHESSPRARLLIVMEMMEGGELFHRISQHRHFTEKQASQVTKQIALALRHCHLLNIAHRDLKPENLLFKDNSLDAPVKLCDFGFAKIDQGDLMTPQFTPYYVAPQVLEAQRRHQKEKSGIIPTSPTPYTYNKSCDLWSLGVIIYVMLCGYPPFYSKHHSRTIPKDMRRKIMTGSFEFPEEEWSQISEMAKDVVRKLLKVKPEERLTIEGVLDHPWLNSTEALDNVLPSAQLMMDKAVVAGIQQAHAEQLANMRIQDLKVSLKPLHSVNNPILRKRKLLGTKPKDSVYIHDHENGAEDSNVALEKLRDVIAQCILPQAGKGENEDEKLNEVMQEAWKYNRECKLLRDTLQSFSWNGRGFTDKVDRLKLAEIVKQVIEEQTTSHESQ

[8] = molecular target: T4, RNA cytidine acetyltransferase (Homo sapiens, UniProt Q9H0A0)
T4 sequence (Q9H0A0 whole entry): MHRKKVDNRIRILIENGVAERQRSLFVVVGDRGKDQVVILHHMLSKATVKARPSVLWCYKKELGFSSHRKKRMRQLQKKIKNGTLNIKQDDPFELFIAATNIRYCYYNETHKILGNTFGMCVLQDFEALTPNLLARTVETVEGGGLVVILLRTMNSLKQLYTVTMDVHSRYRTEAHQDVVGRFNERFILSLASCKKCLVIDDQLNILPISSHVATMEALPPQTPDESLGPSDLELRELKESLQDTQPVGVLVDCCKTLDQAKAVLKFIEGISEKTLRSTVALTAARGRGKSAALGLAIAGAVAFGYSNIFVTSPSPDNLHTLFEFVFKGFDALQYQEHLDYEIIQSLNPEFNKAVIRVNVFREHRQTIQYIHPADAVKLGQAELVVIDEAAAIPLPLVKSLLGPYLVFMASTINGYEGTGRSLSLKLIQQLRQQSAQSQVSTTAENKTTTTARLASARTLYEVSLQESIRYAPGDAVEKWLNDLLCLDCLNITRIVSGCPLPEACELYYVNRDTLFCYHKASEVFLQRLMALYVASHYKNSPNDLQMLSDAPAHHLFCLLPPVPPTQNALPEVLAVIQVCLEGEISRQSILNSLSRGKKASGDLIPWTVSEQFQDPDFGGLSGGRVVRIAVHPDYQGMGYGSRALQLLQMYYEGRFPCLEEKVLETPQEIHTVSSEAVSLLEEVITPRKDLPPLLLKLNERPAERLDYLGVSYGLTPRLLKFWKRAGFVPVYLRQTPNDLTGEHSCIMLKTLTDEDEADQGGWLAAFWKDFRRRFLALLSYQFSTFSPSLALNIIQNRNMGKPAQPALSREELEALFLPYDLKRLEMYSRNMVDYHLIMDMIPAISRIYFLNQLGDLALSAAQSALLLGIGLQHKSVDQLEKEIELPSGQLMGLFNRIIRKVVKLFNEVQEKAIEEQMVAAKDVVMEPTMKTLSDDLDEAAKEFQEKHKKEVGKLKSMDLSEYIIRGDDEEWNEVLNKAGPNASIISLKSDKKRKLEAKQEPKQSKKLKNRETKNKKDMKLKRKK

[9] = molecular target: High affinity nerve growth factor receptor (Homo sapiens, UniProt P04629)
Sequence of High affinity nerve growth factor receptor (P04629 whole entry): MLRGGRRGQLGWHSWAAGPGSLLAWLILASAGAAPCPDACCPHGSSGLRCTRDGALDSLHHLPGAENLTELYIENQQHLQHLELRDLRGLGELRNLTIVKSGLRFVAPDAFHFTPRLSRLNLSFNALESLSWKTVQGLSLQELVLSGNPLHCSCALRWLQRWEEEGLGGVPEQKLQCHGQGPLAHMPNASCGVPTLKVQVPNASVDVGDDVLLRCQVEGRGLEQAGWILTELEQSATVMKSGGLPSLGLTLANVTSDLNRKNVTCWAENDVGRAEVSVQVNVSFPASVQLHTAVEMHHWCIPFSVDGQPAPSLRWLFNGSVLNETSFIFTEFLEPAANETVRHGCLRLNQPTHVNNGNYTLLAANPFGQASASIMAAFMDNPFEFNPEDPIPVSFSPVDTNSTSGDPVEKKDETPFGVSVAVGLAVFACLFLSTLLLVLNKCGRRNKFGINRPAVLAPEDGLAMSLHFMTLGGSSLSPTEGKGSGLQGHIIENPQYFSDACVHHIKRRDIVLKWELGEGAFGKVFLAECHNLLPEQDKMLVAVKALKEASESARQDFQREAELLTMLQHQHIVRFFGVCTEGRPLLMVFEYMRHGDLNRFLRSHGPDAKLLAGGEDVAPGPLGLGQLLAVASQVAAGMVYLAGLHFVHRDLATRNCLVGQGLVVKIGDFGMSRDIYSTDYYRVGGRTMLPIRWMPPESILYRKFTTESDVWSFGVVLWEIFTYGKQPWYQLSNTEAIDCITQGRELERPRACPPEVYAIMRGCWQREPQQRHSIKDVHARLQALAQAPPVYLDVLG

[10] = molecular target: Serine/threonine-protein kinase SIK2 (Homo sapiens, UniProt Q9H0K1)
Sequence of Serine/threonine-protein kinase SIK2 (Q9H0K1 whole entry): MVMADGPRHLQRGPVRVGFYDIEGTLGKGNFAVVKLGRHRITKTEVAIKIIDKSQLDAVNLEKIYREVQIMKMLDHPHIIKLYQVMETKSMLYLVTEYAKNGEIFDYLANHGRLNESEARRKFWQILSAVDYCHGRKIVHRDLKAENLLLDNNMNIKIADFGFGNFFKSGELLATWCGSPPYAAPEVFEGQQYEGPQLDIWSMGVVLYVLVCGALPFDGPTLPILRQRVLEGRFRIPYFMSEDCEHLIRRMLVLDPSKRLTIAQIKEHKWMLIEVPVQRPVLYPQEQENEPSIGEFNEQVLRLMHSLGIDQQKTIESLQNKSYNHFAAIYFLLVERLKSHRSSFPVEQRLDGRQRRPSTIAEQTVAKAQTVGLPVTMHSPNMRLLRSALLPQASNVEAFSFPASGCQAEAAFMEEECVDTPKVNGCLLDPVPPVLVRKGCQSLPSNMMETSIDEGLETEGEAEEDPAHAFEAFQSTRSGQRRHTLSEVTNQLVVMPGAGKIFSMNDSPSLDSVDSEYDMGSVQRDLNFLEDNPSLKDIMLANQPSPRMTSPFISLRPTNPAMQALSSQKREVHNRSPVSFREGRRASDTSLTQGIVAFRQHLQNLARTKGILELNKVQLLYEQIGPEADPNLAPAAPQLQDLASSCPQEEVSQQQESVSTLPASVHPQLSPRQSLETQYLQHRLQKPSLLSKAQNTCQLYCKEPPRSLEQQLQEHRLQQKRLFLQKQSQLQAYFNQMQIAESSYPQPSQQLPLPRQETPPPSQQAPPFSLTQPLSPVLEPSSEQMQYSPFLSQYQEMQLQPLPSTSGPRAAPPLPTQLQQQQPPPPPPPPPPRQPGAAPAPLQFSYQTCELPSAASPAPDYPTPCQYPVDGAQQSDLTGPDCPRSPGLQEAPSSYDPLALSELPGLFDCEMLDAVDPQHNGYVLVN

[11] = molecular target: Serine/threonine-protein kinase 16 (Homo sapiens, UniProt O75716)
Sequence of Serine/threonine-protein kinase 16 (O75716 whole entry): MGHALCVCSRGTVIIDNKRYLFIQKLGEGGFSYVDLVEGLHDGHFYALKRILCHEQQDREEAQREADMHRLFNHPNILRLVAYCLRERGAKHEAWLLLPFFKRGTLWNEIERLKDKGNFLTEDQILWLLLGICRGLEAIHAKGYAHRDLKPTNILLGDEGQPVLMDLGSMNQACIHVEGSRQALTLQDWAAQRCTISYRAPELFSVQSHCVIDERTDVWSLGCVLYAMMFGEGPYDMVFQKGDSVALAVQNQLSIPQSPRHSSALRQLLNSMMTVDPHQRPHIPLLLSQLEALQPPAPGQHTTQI

[12] = molecular target: DNA topoisomerase 2-alpha (Homo sapiens, UniProt P11388)
Sequence of DNA topoisomerase 2-alpha (P11388 whole entry): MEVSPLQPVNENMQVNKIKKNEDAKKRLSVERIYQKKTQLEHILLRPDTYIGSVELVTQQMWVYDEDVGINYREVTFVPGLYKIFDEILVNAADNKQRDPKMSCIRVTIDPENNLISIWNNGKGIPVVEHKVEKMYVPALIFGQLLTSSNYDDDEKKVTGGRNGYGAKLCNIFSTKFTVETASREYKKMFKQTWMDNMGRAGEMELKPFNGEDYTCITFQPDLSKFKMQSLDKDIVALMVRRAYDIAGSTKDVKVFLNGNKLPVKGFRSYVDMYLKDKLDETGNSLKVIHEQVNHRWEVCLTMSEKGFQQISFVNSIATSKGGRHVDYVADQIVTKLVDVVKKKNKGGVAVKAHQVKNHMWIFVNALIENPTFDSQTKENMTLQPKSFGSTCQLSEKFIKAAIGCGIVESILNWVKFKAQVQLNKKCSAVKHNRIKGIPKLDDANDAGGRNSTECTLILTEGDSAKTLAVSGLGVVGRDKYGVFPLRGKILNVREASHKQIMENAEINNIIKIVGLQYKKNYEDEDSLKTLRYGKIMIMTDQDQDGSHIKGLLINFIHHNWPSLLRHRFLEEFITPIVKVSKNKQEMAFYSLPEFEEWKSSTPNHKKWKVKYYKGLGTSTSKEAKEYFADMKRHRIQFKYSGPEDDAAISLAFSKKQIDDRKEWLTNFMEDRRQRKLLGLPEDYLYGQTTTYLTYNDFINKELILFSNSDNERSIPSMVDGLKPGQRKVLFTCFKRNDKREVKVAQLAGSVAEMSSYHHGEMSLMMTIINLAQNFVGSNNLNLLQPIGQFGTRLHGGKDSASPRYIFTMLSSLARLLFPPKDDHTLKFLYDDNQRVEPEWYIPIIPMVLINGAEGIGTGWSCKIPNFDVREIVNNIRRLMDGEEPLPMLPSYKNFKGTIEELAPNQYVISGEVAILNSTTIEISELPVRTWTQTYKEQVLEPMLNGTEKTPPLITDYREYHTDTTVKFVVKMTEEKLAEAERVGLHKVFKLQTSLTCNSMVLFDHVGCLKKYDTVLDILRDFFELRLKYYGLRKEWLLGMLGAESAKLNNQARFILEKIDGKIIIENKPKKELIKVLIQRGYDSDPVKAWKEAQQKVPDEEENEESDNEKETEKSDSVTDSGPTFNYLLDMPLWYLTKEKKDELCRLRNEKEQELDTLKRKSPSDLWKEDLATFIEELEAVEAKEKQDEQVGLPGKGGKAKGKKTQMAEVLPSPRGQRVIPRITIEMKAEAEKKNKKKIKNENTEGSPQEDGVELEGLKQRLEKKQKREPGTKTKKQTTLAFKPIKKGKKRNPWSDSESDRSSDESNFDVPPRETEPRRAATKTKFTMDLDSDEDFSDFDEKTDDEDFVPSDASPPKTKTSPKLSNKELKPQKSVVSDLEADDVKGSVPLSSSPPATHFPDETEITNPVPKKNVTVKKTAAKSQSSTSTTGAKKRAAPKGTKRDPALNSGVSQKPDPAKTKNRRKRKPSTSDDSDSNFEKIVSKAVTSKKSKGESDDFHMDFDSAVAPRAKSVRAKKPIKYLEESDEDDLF

[13] = molecular target: Mitogen-activated protein kinase kinase kinase 20 (Homo sapiens, UniProt Q9NYL2)
Also: in the data inactive means no Kd found up to 30 µM.

Sequence of Calcium/calmodulin-dependent protein kinase kinase 2 (Q96RR4 whole entry): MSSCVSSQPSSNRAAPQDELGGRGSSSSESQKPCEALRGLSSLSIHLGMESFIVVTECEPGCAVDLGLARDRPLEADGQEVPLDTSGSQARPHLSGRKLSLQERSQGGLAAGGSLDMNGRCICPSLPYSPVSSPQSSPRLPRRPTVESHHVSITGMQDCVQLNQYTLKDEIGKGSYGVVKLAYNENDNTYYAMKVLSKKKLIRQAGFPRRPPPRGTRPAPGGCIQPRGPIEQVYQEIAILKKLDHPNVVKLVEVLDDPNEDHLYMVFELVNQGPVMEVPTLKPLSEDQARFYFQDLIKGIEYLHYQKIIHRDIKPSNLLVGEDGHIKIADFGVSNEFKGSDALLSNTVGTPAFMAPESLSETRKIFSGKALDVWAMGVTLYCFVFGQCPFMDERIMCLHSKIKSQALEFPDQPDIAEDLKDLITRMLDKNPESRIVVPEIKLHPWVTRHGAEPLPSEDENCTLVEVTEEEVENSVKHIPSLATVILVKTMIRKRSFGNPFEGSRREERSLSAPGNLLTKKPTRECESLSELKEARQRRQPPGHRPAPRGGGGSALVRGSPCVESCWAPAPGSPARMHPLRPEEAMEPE
Sequence of Casein kinase I isoform epsilon (P49674 whole entry, canonical isoform): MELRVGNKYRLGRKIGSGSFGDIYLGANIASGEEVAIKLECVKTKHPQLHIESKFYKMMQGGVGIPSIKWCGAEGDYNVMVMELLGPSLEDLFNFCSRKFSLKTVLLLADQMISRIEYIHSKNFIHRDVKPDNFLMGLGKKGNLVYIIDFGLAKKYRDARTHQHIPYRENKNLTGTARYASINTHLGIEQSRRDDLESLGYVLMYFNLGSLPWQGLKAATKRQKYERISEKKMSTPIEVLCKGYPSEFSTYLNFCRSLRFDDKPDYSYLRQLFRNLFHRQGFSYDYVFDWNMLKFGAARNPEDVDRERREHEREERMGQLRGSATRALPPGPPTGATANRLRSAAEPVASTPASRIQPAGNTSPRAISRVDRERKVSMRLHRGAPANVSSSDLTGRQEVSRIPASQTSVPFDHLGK

Compound	Kd [1]	Kd [2]	Kd [3]	Kd [4]	Kd [5]	Kd (Heme oxygenase 2)	Kd [6]	Kd [7]	Kd [8]	Kd [9]	Kd [10]	Kd [11]	Kd [12]	Kd [13]
CN(C[C@@H]1COCCO1)S(=O)(=O)Nc1ccc2ccc3ncc(-c4cnn(C)c4)cc3c(=O)c2c1 [MK-2461]	> 30 µM (inactive)	> 30 µM (inactive)	> 30 µM (inactive)	> 30 µM (inactive)	> 30 µM (inactive)	> 30 µM (inactive)	> 30 µM (inactive)	> 30 µM (inactive)	> 30 µM (inactive)	> 30 µM (inactive)	> 30 µM (inactive)	> 30 µM (inactive)	> 30 µM (inactive)	> 30 µM (inactive)
FC(F)(F)c1ccc(/C=C/c2nc(COc3ccc(CCCCn4ccnn4)cc3)co2)cc1 [MUBRITINIB]	> 30 µM (inactive)	> 30 µM (inactive)	> 30 µM (inactive)	> 30 µM (inactive)	> 30 µM (inactive)	> 30 µM (inactive)	> 30 µM (inactive)	> 30 µM (inactive)	> 30 µM (inactive)	> 30 µM (inactive)	> 30 µM (inactive)	> 30 µM (inactive)	> 30 µM (inactive)	> 30 µM (inactive)
COc1ncc(-c2ccc3nccc(-c4ccnnc4)c3c2)cc1NS(=O)(=O)c1ccc(F)cc1F [OMIPALISIB]	> 30 µM (inactive)	> 30 µM (inactive)	> 30 µM (inactive)	> 30 µM (inactive)	> 30 µM (inactive)	> 30 µM (inactive)	> 30 µM (inactive)	> 30 µM (inactive)	> 30 µM (inactive)	> 30 µM (inactive)	> 30 µM (inactive)	> 30 µM (inactive)	> 30 µM (inactive)	> 30 µM (inactive)
Cc1nc(Nc2n[nH]c3c2CN(C(=O)N[C@H](CN(C)C)c2ccccc2)C3(C)C)c2sccc2n1 [PF-03758309]	2.86 µM (active)	> 30 µM (inactive)	> 30 µM (inactive)	> 30 µM (inactive)	0.667 µM (active)	> 30 µM (inactive)	> 30 µM (inactive)	> 30 µM (inactive)	> 30 µM (inactive)	2.21 µM	1.27 µM (active)	5.45 µM (active)	> 30 µM (inactive)	> 30 µM (inactive)
Cc1cnc(NC(=O)Nc2cc(Br)c(C)cc2OC[C@@H]2CNCCO2)cn1 [RABUSERTIB]	> 30 µM (inactive)	> 30 µM (inactive)	> 30 µM (inactive)	> 30 µM (inactive)	> 30 µM (inactive)	> 30 µM (inactive)	> 30 µM (inactive)	> 30 µM (inactive)	> 30 µM (inactive)	> 30 µM (inactive)	> 30 µM (inactive)	> 30 µM (inactive)	> 30 µM (inactive)	> 30 µM (inactive)
CO[C@H]1C[C@@H]2CC[C@@H](C)[C@@](O)(O2)C(=O)C(=O)N2CCCC[C@H]2C(=O)O[C@H]([C@H](C)C[C@@H]2CC[C@@H](OP(C)(C)=O)[C@H](OC)C2)CC(=O)[C@H](C)/C=C(\C)[C@@H](O)[C@@H](OC)C(=O)[C@H](C)C[C@H](C)/C=C/C=C/C=C/1C [RIDAFOROLIMUS]	> 30 µM (inactive)	> 30 µM (inactive)	> 30 µM (inactive)	> 30 µM (inactive)	> 30 µM (inactive)	> 30 µM (inactive)	> 30 µM (inactive)	> 30 µM (inactive)	> 30 µM (inactive)	> 30 µM (inactive)	> 30 µM (inactive)	> 30 µM (inactive)	> 30 µM (inactive)	> 30 µM (inactive)
N#CC1(c2ccc(NC(=O)c3cccnc3NCc3ccncc3)cc2)CCCC1 [RIVOCERANIB]	> 30 µM (inactive)	> 30 µM (inactive)	> 30 µM (inactive)	> 30 µM (inactive)	> 30 µM (inactive)	> 30 µM (inactive)	> 30 µM (inactive)	> 30 µM (inactive)	> 30 µM (inactive)	> 30 µM (inactive)	> 30 µM (inactive)	> 30 µM (inactive)	> 30 µM (inactive)	4.76 µM (active)
O=c1[nH]ccc2cc(OC3CCNCC3)ccc12 [SAR-407899 FREE BASE]	> 30 µM (inactive)	> 30 µM (inactive)	> 30 µM (inactive)	> 30 µM (inactive)	> 30 µM (inactive)	> 30 µM (inactive)	> 30 µM (inactive)	> 30 µM (inactive)	> 30 µM (inactive)	> 30 µM (inactive)	> 30 µM (inactive)	> 30 µM (inactive)	> 30 µM (inactive)	> 30 µM (inactive)
CN1CCN(CCOc2cc(OC3CCOCC3)c3c(Nc4c(Cl)ccc5c4OCO5)ncnc3c2)CC1 [SARACATINIB]	> 30 µM (inactive)	> 30 µM (inactive)	> 30 µM (inactive)	> 30 µM (inactive)	> 30 µM (inactive)	> 30 µM (inactive)	> 30 µM (inactive)	> 30 µM (inactive)	> 30 µM (inactive)	> 30 µM (inactive)	1.41 µM (active)	> 30 µM (inactive)	> 30 µM (inactive)	2.98 µM (active)
CO[C@H]1C[C@@H]2CC[C@@H](C)[C@@](O)(O2)C(=O)C(=O)N2CCCC[C@H]2C(=O)O[C@H]([C@H](C)C[C@@H]2CC[C@@H](O)[C@H](OC)C2)CC(=O)[C@H](C)/C=C(\C)[C@@H](O)[C@@H](OC)C(=O)[C@H](C)C[C@H](C)/C=C/C=C/C=C/1C [SIROLIMUS]	> 30 µM (inactive)	> 30 µM (inactive)	> 30 µM (inactive)	> 30 µM (inactive)	> 30 µM (inactive)	> 30 µM (inactive)	> 30 µM (inactive)	> 30 µM (inactive)	> 30 µM (inactive)	> 30 µM (inactive)	> 30 µM (inactive)	> 30 µM (inactive)	> 30 µM (inactive)	> 30 µM (inactive)
